# Test results from patent US20220313700A1, “METHODS FOR TREATING MAP3K8 POSITIVE CANCERS” (CELL RESPONSE, INC., priority 2019, published 2022).
# Where two headings read alike, the source gives them in different places.
# Legend:
# [1] = system: H23 NSCLC cell line; test: Alamar blue proliferation assay, H23; format: cell-based; conditions: H23, 72 hours, vs no drug
# Procedure: (§1) The experiments have been performed in the following way. Three thousand cells in suspension in the medium normally used to grow these particular cells have been placed in an individual well within a 96 well tissue culture plate. Following cell attachment, the drugs have added to the wells to achieve the final indicated concentration. Subsequently, the cells were incubated for 72 hours in a standard tissue culture incubator at 37 degrees Celsius in an atmosphere containing 5% CO2. Following 66 hours, Alamar blue was added to the cells. Six hours later (72 hours from the addition of drug) the 96 well plate was placed in a fluorescence plate reader to measure for Alamar blue fluorescence (excitation wavelength of 540-570 nm (peak excitation is 560 nm)). Fluorescence emission was read at 580-610 nm (peak emission is 590 nm). This enabled the determination of the number of live cells present in each well. Wells containing each drug were compared to control wells where no drug was added. In each experiment, each condition was performed in multiple technical repeats of between four and eight times, by using between four and eight wells that were treated identically Each and every experiment was repeated at least three times on different days. In the data shown here, a representative example of each experiment is shown.
# [2] = system: H358 NSCLC cell line; test: Alamar blue proliferation assay, H358; format: cell-based; conditions: H358, 72 hours, vs no drug
# Procedure: as §1
# [3] = system: HCT15 CRC cell line; test: Alamar blue proliferation assay, HCT15; format: cell-based; conditions: HCT15, 72 hours; for inhibitory effect on proliferation (in words): FIG. 7, FIG. 9, FIG. 19, FIG. 20; for inhibition of proliferation: vs no drug, FIG. 8, FIG. 9
# Procedure: as §1, with “Following cell attachment, the drugs have added to the wells to achieve the final indicated concentration.” left out, “days.” for “days. In the data shown here, a representative example of each experiment is shown.”
# [4] = system: LOVO colorectal cell line; test: Alamar blue proliferation assay, LOVO; format: cell-based; conditions: 72 hours, FIG. 7, FIG. 10
# Procedure: as §1, with “Following cell attachment, the drugs have added to the wells to achieve the final indicated concentration.” left out, “days.” for “days. In the data shown here, a representative example of each experiment is shown.”
# [5] = system: DLD1 CRC cell line; test: Alamar blue proliferation assay, DLD1; format: cell-based; conditions: DLD1, 72 hours; for inhibitory effect on proliferation (in words): FIG. 7, FIG. 9, FIG. 20
# Procedure: as §1, with “Following cell attachment, the drugs have added to the wells to achieve the final indicated concentration.” left out, “days.” for “days. In the data shown here, a representative example of each experiment is shown.”
# [6] = system: H1975 NSCLC cell line; test: Alamar blue proliferation assay, H1975; format: cell-based; conditions: H1975, 72 hours, vs no drug, FIG. 14, 16, 17
# Procedure: as §1
# [7] = system: 11-18 NSCLC cell line; test: Alamar blue proliferation assay, 11-18; format: cell-based; conditions: 11-18, 72 hours, FIG. 14, FIG. 17
# Procedure: as §1
# [8] = system: A549 NSCLC cell line; test: Alamar blue proliferation assay, A549; format: cell-based; conditions: A549, 72 hours
# Procedure: as §1
# [9] = system: IKKβ, JNK1α, p38, EGFR, CK1α, CDK2, JAK3, MST4, GSK3β; conditions: cited from earlier work
# [10] = molecular target: COT (Homo sapiens, UniProt P41279); conditions: cited from earlier work
# [11] = system: ERK phosphorylation; conditions: cited from earlier work
# [12] = system: intact blood cells; conditions: cited from earlier work
# [13] = system: four other related kinases; conditions: cited from earlier work
# [14] = system: CRC cell line HT29; test: Alamar blue proliferation assay, HT29; format: cell-based; conditions: HT29, 72 hours, monotherapy, FIG. 13
# Procedure: as §1
# [15] = system: NSCLC H1975 cell line; test: siRNA knockdown proliferation assay, H1975; format: cell-based; conditions: H1975, 200 nM, FIG. 21B
# Procedure: as §1, with “Following cell attachment, the drugs have added to the wells to achieve the final indicated concentration.” left out, “days.” for “days. In the data shown here, a representative example of each experiment is shown.”
# [16] = system: NSCLC patients with EGFR mutations; conditions: cited from earlier work
# [17] = system: HPAFII pancreatic cancer cell line; test: Alamar blue proliferation assay, HPAFII; format: cell-based; conditions: 72 hours, vs no drug
# Procedure: as §1
# [18] = system: BxPC3 pancreatic cancer cell line; test: Alamar blue proliferation assay, BxPC3; format: cell-based; conditions: BxPC3, 72 hours, vs no drug
# Procedure: as §1
# [19] = system: metastatic ROS1 positive non-small cell lung cancer (NSCLC) patients; conditions: cited from earlier work
# [20] = system: STE1 NSCLC cell line; test: Alamar blue proliferation assay, STE1; format: cell-based; conditions: STE1, 72 hours, FIG. 18
# Procedure: as §1
# Sequence of COT (P41279 whole entry): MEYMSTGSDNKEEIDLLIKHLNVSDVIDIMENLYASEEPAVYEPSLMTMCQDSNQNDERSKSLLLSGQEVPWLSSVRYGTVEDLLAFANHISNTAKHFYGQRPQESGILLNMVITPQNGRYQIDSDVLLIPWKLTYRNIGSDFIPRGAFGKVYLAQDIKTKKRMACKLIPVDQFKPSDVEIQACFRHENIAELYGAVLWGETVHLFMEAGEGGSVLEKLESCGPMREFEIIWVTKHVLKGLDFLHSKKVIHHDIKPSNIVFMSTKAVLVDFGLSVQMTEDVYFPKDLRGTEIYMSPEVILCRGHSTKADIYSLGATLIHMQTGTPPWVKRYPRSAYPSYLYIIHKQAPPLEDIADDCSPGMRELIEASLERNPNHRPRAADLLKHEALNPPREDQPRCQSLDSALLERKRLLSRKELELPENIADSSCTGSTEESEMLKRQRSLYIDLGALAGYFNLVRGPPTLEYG
smiles,measurement,setting,value
"C=CC(=O)N1CCN(c2nc(=O)n(-c3c(C)ccnc3C(C)C)c3nc(-c4c(O)cccc4F)c(F)cc23)[C@@H](C)C1 [AMG510, 6-fluoro-7-(2-fluoro-6-hydroxyphenyl)-1-[4-methyl-2-(propan-2-yl)pyridin-3-yl]-4-[(2S)-2-methyl-4-(prop-2-enoyl)piperazin-1-yl]-1H,2H-pyrido[2,3-d]pyrimidin-2-one]",inhibition of proliferation,[1],50%
same,inhibition of proliferation,[2],30%
"CCN1CCC(n2cc(CNc3cc(Cl)c4ncc(C#N)c(Nc5ccc(F)c(Cl)c5)c4c3)nn2)CC1 [COT inhibitor, 3-Quinolinecarbonitrile, 8-chloro-4-[(3-chloro-4-fluorophenyl)amino]-6-[[[1-(1-ethyl-4-piperidinyl)-1H-1,2,3-triazol-4-yl]methyl]amino]-3-quinolinecarbonitrile]",inhibitory effect on proliferation (in words),[3],"variable, but significant, inhibitory effect"
same,inhibition of proliferation,[3],30%
same,inhibitory effect on proliferation (in words),[4],"variable, but significant, inhibitory effect"
same,inhibitory effect on proliferation (in words),[5],"variable, but significant, inhibitory effect"
same,inhibition of proliferation,[6],20%
same,inhibitory effect on proliferation (in words),[7],higher level of inhibition
same,inhibition of proliferation,[1],about 30%
same,inhibitory effect on proliferation (in words),"[8]; FIG. 5, FIG. 6",no effect
same,inhibition of proliferation,[2],about 30%
c1ccc2[nH]c(-c3n[nH]c4ccccc34)nc2c1 [FIG. 2A without methyl group],"kinase selectivity against CDK2, JAK3, MST4, GSK3β",[9],less selectivity
same,"kinase selectivity against IKKβ, JNK1α, p38, EGFR, CK1α",[9],good kinase selectivity
same,IC50,"[10]; Hu et al. 2011, indazoles with benzimidazole ring, read-out: COT (TPL2) IC50",109 nM
Cc1c(CNCCO)cncc1-c1ccc2[nH]nc(-c3nc4ccccc4[nH]3)c2c1 [FIG. 2B],inhibition of ERK phosphorylation,[11],inhibits ERK phosphorylation
NC(=O)c1cc2c(-c3cccc(-c4ccccc4)c3)cnc(N)c2s1 [FIG. 3B],activity when added to intact blood cells,[12],active
same,IC50,"[10]; thieno[2,3-c]pyridines, George et al. 2008, Cusack et al. 2009, read-out: COT IC50",170 nM
same,inhibition of four other related kinases relative to COT,[13],at least ten-fold less effective
CN(C)C1CCN(C(=O)c2ccc(NC(=O)Nc3ccc(-c4nc(N5CCOCC5)nc(N5CCOCC5)n4)cc3)cc2)CC1 [Gedatolisib],inhibitory effect on proliferation (in words),[14],significant inhibitory effect
same,inhibitory effect on proliferation (in words),[3],little to no inhibition
same,inhibitory effect on proliferation (in words),[5],little to no inhibition
C=CC(=O)Nc1cc(Nc2nccc(-c3cn(C)c4ccccc34)n2)c(OC)cc1N(C)CCN(C)C [Osimertinib],reduction of relative cell number,[15],~50%
same,"progression-free survival, average","[16]; osimertinib, or erlotinib/gefitinib/afatinib followed by osimertinib",18 months
same,patients who respond,[16]; patients relapsed after first or second line EGFR inhibitors,Fifty percent
CC(C)Nc1cc(-c2c[nH]c(C(=O)N[C@H](CO)c3cccc(Cl)c3)c2)c(Cl)cn1 [Ulixertinib],inhibition of proliferation,[17],15%
same,inhibition of proliferation,[3],20%
same,inhibition of proliferation,[18],32%
same,inhibition of proliferation,"[5]; vs no drug, FIG. 8, FIG. 9",approximately 20%
same,inhibition of proliferation,"[8]; vs no drug, FIG. 6",10%
CN(C)C/C=C/C(=O)Nc1cc2c(Nc3ccc(F)c(Cl)c3)ncnc2cc1O[C@H]1CCOC1 [afatinib],inhibition of proliferation,[6],35%
CCc1cc2c(cc1N1CCC(N3CCOCC3)CC1)C(C)(C)c1[nH]c3cc(C#N)ccc3c1C2=O [alectinib],clinical benefit in ROS1 positive patients,[19]; in vivo,do not possess clinical benefit
C[C@@H](Oc1cc(-c2cnn(C3CCNCC3)c2)cnc1N)c1c(Cl)ccc(F)c1Cl [crizotinib],patients in whom treatment was initially effective,[19]; clinical trials,70-80%
CN1CCN(c2ccc(C(=O)Nc3n[nH]c4ccc(Cc5cc(F)cc(F)c5)cc34)c(NC3CCOCC3)c2)CC1 [entrectinib],duration of response,[19]; in vivo,28.6 months
same,objective response rate (ORR),[19]; in vivo,78%
COc1cc2c(Oc3ccc(NC(=O)C4(C(=O)Nc5ccc(F)cc5)CC4)cc3F)ccnc2cc1OCCCN1CCOCC1 [foretinib],clinical benefit in ROS1 positive patients,[19]; in vivo,do not possess clinical benefit
C[C@H]1Oc2cc(cnc2N)-c2c(nn(C)c2C#N)CN(C)C(=O)c2ccc(F)cc21 [loraltinib],inhibition of proliferation,[20],81%
COc1cc2c(Nc3ccc(Br)cc3F)ncnc2cc1OCC1CCN(C)CC1 [vandetanib],inhibition of proliferation,[6],20%
